According to ChEMBL document CHEMBL1130072, “Probing the active sites of monoamine oxidase A and B with 1,4-disubstituted tetrahydropyridine substrates and inactivators” (J Med Chem, 1997):

Tests used:
[1] = target: T1, Amine oxidase [flavin-containing] B (Bos taurus, UniProt P56560); assay: Tested for maximum velocity of monoamine oxidase B catalyzed oxidation; parameters: unit not given here
T1 sequence (P56560 whole entry): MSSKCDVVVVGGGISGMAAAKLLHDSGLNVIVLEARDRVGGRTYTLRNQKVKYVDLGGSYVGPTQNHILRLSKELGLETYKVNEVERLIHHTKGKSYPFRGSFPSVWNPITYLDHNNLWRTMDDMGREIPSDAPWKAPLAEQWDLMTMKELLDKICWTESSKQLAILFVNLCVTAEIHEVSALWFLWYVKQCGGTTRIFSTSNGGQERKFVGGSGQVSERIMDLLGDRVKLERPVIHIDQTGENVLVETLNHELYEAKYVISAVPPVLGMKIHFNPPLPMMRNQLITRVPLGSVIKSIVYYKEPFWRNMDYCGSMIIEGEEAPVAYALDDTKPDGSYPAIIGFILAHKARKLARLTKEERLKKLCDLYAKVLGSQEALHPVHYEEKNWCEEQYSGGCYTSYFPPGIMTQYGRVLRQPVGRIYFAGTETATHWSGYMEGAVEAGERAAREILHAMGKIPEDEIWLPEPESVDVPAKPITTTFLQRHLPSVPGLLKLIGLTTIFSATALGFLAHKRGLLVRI

[2] = target: T2, Amine oxidase [flavin-containing] A (Homo sapiens, UniProt P21397); assay: Tested for maximum velocity of monoamine oxidase A catalyzed oxidation; parameters: unit not given here
T2 sequence (P21397 whole entry): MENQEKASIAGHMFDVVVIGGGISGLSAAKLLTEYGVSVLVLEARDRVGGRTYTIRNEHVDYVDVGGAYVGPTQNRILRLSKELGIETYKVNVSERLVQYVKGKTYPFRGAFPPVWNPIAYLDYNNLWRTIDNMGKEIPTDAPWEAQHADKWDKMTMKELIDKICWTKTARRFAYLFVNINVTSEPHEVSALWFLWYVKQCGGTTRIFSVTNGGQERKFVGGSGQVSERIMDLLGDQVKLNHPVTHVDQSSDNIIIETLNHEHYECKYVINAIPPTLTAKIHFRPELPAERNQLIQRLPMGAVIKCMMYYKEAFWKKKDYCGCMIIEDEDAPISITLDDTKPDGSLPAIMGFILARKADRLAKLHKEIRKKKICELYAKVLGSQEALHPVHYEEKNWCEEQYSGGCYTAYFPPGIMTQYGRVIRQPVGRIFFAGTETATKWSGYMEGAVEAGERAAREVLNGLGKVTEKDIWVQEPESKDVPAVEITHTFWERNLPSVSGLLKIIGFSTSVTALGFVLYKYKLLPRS

[3] = target: T3, Amine oxidase [flavin-containing] B (Homo sapiens, UniProt P27338); assay: Vmax/Km values for MAO-B; parameters: unit not given here
T3 sequence (P27338 whole entry): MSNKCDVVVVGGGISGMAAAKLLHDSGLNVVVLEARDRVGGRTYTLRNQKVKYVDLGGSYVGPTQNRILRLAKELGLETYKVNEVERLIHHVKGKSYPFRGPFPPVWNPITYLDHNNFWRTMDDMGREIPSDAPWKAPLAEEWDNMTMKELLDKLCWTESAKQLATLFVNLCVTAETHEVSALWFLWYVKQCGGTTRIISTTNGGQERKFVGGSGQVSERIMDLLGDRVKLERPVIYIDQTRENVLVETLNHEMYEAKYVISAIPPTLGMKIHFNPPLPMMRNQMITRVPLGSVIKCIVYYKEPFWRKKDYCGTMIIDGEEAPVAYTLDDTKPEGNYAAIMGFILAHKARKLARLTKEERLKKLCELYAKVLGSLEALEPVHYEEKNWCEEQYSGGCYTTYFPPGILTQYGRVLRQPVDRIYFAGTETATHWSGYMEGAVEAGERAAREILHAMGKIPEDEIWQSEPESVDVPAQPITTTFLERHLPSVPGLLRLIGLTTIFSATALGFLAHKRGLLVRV

[4] = target: T2, Amine oxidase [flavin-containing] A; assay: Vmax/Km values for MAO-A; parameters: unit not given here
[5] = target: T4, Monoamine oxidase (Homo sapiens, UniProt P21397+P27338); assay: Selectivity Coefficient measured as ratio of Vmax/Km value of MAO-B to that of MAO-A; format: protein assay
T4 sequence (P21397 whole entry): T2 sequence (P21397 whole entry)
T4 sequence (P27338 whole entry): T3 sequence (P27338 whole entry)

[6] = target: T1, Amine oxidase [flavin-containing] B; assay: Tested for Kinetic data against the monoamine oxidase B catalyzed oxidation.
[7] = target: T2, Amine oxidase [flavin-containing] A; assay: Tested for Kinetic data against the monoamine oxidase A catalyzed oxidation.
[8] = target: T2, Amine oxidase [flavin-containing] A; assay: Tested for Kinetic data against the monoamine oxidase A catalyzed oxidation;NSD = No substrate properties detected
[9] = target: T2, Amine oxidase [flavin-containing] A; assay: Tested for inhibition- binding affinity against monoamine oxidase A catalyzed oxidation; NID = no inactivation properties detected.
[10] = target: T2, Amine oxidase [flavin-containing] A; assay: Tested for Km, the substrate concentration with gives half maximum velocity of the monoamine oxidase A catalyzed oxidation; NSD = no substrate properties detected
[11] = target: T1, Amine oxidase [flavin-containing] B; assay: Tested for Km, the substrate concentration with gives half maximum velocity of the monoamine oxidase B catalyzed oxidation; NSD = no substrate properties detected
[12] = target: T1, Amine oxidase [flavin-containing] B; assay: Tested for inhibition- binding affinity against monoamine oxidase B catalyzed oxidation; NID = no inactivation properties detected.

SMILES: CN1CC=C(c2ccc3ccccc3c2)CC1
- Vmax [1]: 42
- Vmax [2]: 204
- Ratio [3]: 71
- Ratio [4]: 443

SMILES: CN1CC=C(c2ccccc2)CC1
- Vmax [1]: 204
- Vmax [2]: 20
- Selectivity coefficient [5]: 3.65
- Ratio [3]: 523
- Ratio [4]: 143

SMILES: CN1CC=C(c2cccc3ccccc23)CC1
- Vmax [1]: 51
- Vmax [2]: 526
- Ratio [3]: 364
- Ratio [4]: 862

SMILES: CCc1ccccc1C1=CCN(C)CC1
- Vmax / Km [6]: 4920 M⁻¹ s⁻¹
- Vmax / Km [7]: 11500 M⁻¹ s⁻¹
- Selectivity coefficient [5]: 0.43

SMILES: CC(C)c1ccccc1C1=CCN(C)CC1
- Vmax / Km [6]: 850 M⁻¹ s⁻¹
- Vmax / Km [7]: 18700 M⁻¹ s⁻¹
- Selectivity coefficient [5]: 0.05

SMILES: CN1CC=C(c2c[nH]c3ccccc23)CC1.O=C(O)C(=O)O
- Vmax / Km [6]: 6620 M⁻¹ s⁻¹
- Vmax [1]: 358

SMILES: COc1cccc(C2=CCN(C)CC2)c1
- Vmax / Km [6]: 15600 M⁻¹ s⁻¹
- Vmax / Km [8]: No substrate detected

SMILES: CN1CC=C(c2cccc(Oc3ccccc3)c2)CC1
- Vmax / Km [7]: 92800 M⁻¹ s⁻¹

SMILES: C1=C(c2ccc(-c3ccccc3)cc2)CCN(C2CC2)C1
- Ki [9]: No inhibition

SMILES: CN1CC=C(c2cccc(-c3ccccc3)c2)CC1
- Vmax [1]: 153
- Km [10]: No substrate detected
- Ratio [3]: 157

SMILES: CN1CC=C(c2ccc(-c3ccccc3)cc2)CC1
- Km [11]: No substrate detected
- Km [10]: No substrate detected

SMILES: Cc1ccccc1C1=CCN(C)CC1
- Vmax / Km [6]: 21470 M⁻¹ s⁻¹
- Vmax / Km [7]: 9800 M⁻¹ s⁻¹
- Selectivity coefficient [5]: 2.19

SMILES: C1=C(c2ccccc2-c2ccccc2)CCN(C2CC2)C1
- Ki [12]: No inhibition

SMILES: Cc1cccc(C2=CCN(C)CC2)c1
- Vmax / Km [6]: 10800 M⁻¹ s⁻¹
- Vmax / Km [7]: 1270 M⁻¹ s⁻¹
- Selectivity coefficient [5]: 8.5

SMILES: CN1CC=C(c2ccccc2-c2ccccc2)CC1
- Vmax [1]: 20
- Vmax [2]: 107
- Ratio [3]: 12
- Ratio [4]: 892
